From the NIST ThermoML archive (doi:10.1021/je301283e)

Details: Liquid, Drop volume

CCCCCCC [heptane] + O=C=O
interfacial tension [mN/m]
Details	313.15 K	333.15 K	353.15 K	373.15 K	393.15 K
340 kPa	16.27	14.24	12.36	11	9.62
690 kPa	15.56	13.68	11.92	10.64	9.29
1030 kPa	14.88	13.1	11.46	10.29	8.99
1380 kPa	14.23	12.54	10.99	9.87	8.73
1720 kPa	13.42	12	10.6	9.54	8.45
2070 kPa	12.71	11.38	10.13	9.27	8.23
2410 kPa	12.05	10.8	9.78	8.84	7.93
2760 kPa	11.17	10.2	9.24	8.45	7.63
3100 kPa	10.54	9.62	8.71	8.1	7.32
3450 kPa	9.76	8.92	8.19	7.67	7.1
3800 kPa	9.04	8.32	7.86	7.35	6.84
4140 kPa	8.36	7.76	7.34	7	6.61
4480 kPa	7.47	7.23	6.95	6.68	6.25
4830 kPa	6.74	6.66	6.5	6.35	6
5170 kPa	5.87	6.1	6.11	5.95	5.74
5510 kPa	5.1	5.58	5.83	5.68	5.44
5860 kPa	4.23	5.11	5.46	5.41	5.24
6200 kPa	3.59	4.61	4.95	5.08	4.96
6550 kPa	3.07	4.04	4.41	4.69	4.68
6890 kPa	2.39	3.52	4.01	4.38	4.37
7240 kPa	–	3.02	3.61	3.94	4.1
7580 kPa	–	2.4	3.22	3.67	3.81

CCCCCCCCCCCCCCCC [hexadecane] + O=C=O
interfacial tension [mN/m]
Details	313.15 K	333.15 K	353.15 K	373.15 K	393.15 K
340 kPa	22.39	20.59	19.15	17.84	16.46
690 kPa	21.67	20.1	18.65	17.27	16.12
1030 kPa	20.89	19.32	18.15	16.85	15.79
1380 kPa	20.29	18.89	17.69	16.47	15.54
1720 kPa	19.42	18.21	17.21	15.99	15.11
2070 kPa	18.39	17.8	16.74	15.67	14.81
2410 kPa	17.81	17.01	16.21	15.29	14.49
2760 kPa	17.21	16.38	15.71	14.94	14.18
3100 kPa	16.29	15.94	15.31	14.48	13.77
3450 kPa	15.49	15.36	14.82	14.21	13.52
3800 kPa	14.85	14.8	14.37	13.89	13.2
4140 kPa	13.94	14.23	13.88	13.49	12.84
4480 kPa	13.36	13.77	13.31	13	12.59
4830 kPa	12.38	12.89	12.89	12.58	12.3
5170 kPa	11.9	12.49	12.44	12.15	12.06
5510 kPa	11.18	11.68	11.81	11.89	11.63
5860 kPa	10.46	11.11	11.48	11.47	11.41
6200 kPa	9.57	10.36	11.15	11.11	11.18
6550 kPa	8.63	9.68	10.74	10.79	10.81
6890 kPa	7.78	9.16	10.05	10.28	10.56
7240 kPa	7.22	8.82	9.74	9.9	10.19
7580 kPa	6.26	8.16	9.44	9.57	9.82
7930 kPa	5.48	7.52	8.98	9.35	9.52
8270 kPa	4.79	6.86	8.35	8.84	9.23
8620 kPa	4.24	6.32	7.67	8.27	8.84
8960 kPa	3.49	5.81	7.42	7.87	8.58
9310 kPa	2.7	5.19	6.95	7.65	8.16
9650 kPa	–	4.57	6.06	7.15	7.92
10000 kPa	–	4	5.78	6.74	7.61
10340 kPa	–	3.45	5.11	6.41	7.27
10690 kPa	–	2.94	4.84	6.16	6.99
11030 kPa	–	2.38	4.48	5.64	6.75
11380 kPa	–	–	4.04	5.28	6.42
